This is an account of results in article PMC4841536, “Characterization of the Anti-HCV Activities of the New Cyclophilin Inhibitor STG-175” (PLoS ONE, 2016).

The nature of data set [1]: alamarBlue cytotoxicity (CC50), GT3a replicon cell line. The settings on record: human. As for the experimental part: (§1) The anti-HCV activity of STG-175 was conducted using a panel of luciferase reporter replicon cell lines including GT1a, GT1b, GT2a, GT3a and GT4a as we described previously. The GT1a subgenomic renilla luciferase reporter replicon H77 RLucP (7) was supplied by Dr. Delaney. The GT1b subgenomic firefly luciferase reporter replicon pFK-I389/NS3-3’ [29] was supplied by Dr. Bartenschlager. The GT1B subgenomic NS3, NS5A and NS5B mutants were created via homologous recombination using the In-Fusion HD Cloning kit (Clontech) as we described previously. The GT2a genomic luciferase reporter replicon Luc-Neo-JFH-1 was generated as previously. The plasmid pFK-Luc-JFH1 was supplied from Drs. […] The CellTiter-Fluor™ Cell Viability Assay is a non-lytic fluorescence assay, which measures the number of live cells. […] Luciferase activity was determined using the Luciferase Assay System (Promega) in a Berthold luminometer. […] Viable cells continuously convert resazurin to resorufin, increasing the overall fluorescence and color of the media surrounding cells.
(§2) Fig 2 Anti-HCV activities of STG-175 among GTs. […] Luciferase activity was determined using the Luciferase Assay System in a Berthold luminometer. […] Data are expressed as mean of relative light units and calculated EC50s are presented. […]

For data set [2], the system named is HCV GT3a subgenomic replicon S52/SG-Feo (AI). As to the kind of experiment: Luciferase reporter replicon antiviral assay, GT3a. The data set is classed as cell-based. The settings on record: Hepatitis C virus. As for the experimental part: as §1, §2
The subject of data set [3] is IL-2 promoter activation in Jurkat T-cell line. Description: In vitro assay for immunosuppression: IL-2 promoter activation in engineered Jurkat T-cell line (betagalactosidase). The data set is classed as cell-based. As for the experimental part:
IL-2 promoter activation upon T-cell stimulation was determined using an engineered Jurkat T-cell line, which expresses betagalactosidase when exposed to chemical non-specific factors like […] (PMA) and phytohematogglutinin (PHA) as described previously. DMSO or STG-175 were added together with PMA (10 ng/mL) to 1 million of Jurkat cells (triplicates). Betagalactosidase activity in cell lysates was quantified by fluorescence (460 nm) after 24 h.
Fig 1 Anti-PPIase and immunosuppressive activities of STG-175. A. Structures of cyclophilin inhibitors. Inhibition of CypA (B) and CypD (C) isomerase activities were assessed using the α-chymotrypsin-coupled assay. Each test compound was prepared at 10 concentrations (0.05–1000 nM). All solutions were equilibrated, and reactions conducted at 5°C. Reactions were initiated by mixing 95 μL reaction mix with 5 μL of the peptide to be cleaved and measuring OD405 nm at 6-sec intervals for 6 min. Data were fitted with Graphpad Prism 6.0 to obtain first-order rate constants. Enzyme catalyzed rate constants were calculated by subtracting the rate constant from uncatalyzed reactions (no CypA/D), and catalytic rate constants plotted as a function of inhibitor concentration to obtain IC50s. […] D. IL-2 promoter activation upon T-cell stimulation was determined using an engineered Jurkat T-cell line, which expresses betagalactosidase. Jurkat cells (1 million) were activated with PMA (10 ng/mL). […] The Y-axis values are expressed as percentage of activity. Data expressed as EC50s are representative of two independent experiments.
The formation of this trimolecular complex inhibits T cell proliferation by blocking the signaling pathway leading to IL-2 production upon T-cell stimulation. The immunosuppressive activity of STG-175 was evaluated by inhibition of the IL-2 production in Jurkat cells.

Data set [4] in a line: alamarBlue cytotoxicity (CC50), GT1a replicon cell line. The following applies: human. As for the experimental part:
as §1, §2

The subject of data set [5] is HBV in mixed PBMCs, NTCP-Huh7 and Huh7.5.1 cells. As to the kind of experiment: Dual/triple co-infection in cell co-cultures, HBV readout. The data set is classed as cell-based, hepatitis B virus.

Molecules are shown by their SMILES. Read-outs that look alike come from different tables or passages of the source.

As for `CC=CCC(C)C(O)C1C(=O)NC(CC)C(=O)N(C)C(CSCCCCO)C(=O)N(C)C(CC(C)(C)O)C(=O)NC(C(C)C)C(=O)N(C)C(CC(C)C)C(=O)NC(C)C(=O)NC(C)C(=O)N(C)C(CC(C)C)C(=O)N(C)C(CC(C)C)C(=O)N(C)C(C(C)C)C(=O)N1C` (centres unmarked) [STG-175], the 50% cytotoxic concentration (CC50) at 72 h in data set [1] and in data set [4] was above 10 µM each time. For the same compound, the EC50 turned out to be 0.0389 µM in data set [2] (72 h, read-out: EC50 GT3a) and 0.0389 µM in data set [2] (read-out: EC50 GT3a (Fig 2D)). Also, the IC50 in data set [3] (Homo sapiens, Jurkat, 24 h, read-out: IC50, inhibition of IL-2 production (immunosuppressive activity)) came out at 0.159 µM. Also, the “times less immunosuppressive activity than CsA” value in data set [3] (Jurkat IL-2) is reported as “approximately 1000 times”. Further, the “HBV infection in co-infection” value in data set [5] (STG-175 added together with virus) is given as “greatly attenuated”. The “pre-established HBV infection in co-infection” value in data set [5] (added 3 days post-infection and then every 3 days) is on record as “decreased the viral expansion”.
